Assay results from publication PMC2861360 (Chemistry & biology, 2008).

Assays:
wt EryAIII M6 = target: T1, wt EryAIII M6 (Saccharopolyspora erythraea, UniProt Q03133); experiment: SDS-PAGE autoradiography of self-loading; format: biochemical; details: HEPES pH 7.4, RT; covalent; labelled compound; data not shown
T1 sequence (Q03133 1468-2900 limits assumed): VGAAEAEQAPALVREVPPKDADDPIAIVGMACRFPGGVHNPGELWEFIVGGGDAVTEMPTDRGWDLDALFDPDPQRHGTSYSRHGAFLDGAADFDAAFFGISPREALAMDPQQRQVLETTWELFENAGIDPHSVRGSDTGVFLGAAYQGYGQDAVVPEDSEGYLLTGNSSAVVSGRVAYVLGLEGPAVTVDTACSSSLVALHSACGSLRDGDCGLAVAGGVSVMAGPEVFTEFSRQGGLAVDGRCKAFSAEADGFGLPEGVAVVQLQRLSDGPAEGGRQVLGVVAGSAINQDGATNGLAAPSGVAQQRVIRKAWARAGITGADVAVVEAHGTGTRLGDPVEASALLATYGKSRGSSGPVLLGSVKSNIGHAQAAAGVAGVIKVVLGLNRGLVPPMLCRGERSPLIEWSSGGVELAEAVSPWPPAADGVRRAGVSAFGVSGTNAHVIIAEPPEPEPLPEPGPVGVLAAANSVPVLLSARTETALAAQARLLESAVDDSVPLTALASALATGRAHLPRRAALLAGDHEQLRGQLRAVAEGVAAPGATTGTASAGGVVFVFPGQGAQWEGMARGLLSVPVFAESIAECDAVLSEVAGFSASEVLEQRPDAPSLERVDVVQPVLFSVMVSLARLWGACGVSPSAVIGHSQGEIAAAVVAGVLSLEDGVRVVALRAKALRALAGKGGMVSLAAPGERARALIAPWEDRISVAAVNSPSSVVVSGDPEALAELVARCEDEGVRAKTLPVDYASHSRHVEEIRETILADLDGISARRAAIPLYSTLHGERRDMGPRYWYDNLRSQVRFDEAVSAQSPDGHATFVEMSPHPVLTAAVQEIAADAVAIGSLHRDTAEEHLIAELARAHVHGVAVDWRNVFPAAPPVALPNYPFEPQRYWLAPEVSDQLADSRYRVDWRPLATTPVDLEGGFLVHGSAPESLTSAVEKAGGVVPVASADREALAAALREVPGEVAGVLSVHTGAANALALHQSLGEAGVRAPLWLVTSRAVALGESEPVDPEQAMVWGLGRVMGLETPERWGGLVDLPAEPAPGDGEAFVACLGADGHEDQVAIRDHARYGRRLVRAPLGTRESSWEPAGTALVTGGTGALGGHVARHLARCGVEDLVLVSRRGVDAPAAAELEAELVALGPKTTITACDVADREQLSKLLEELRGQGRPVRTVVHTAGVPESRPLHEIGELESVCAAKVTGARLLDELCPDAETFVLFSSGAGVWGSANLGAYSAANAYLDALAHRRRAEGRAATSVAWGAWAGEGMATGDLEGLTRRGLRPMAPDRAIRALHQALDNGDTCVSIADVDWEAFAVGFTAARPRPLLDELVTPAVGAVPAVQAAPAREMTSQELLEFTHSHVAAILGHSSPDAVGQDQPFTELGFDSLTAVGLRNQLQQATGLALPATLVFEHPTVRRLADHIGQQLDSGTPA

wt PikAIV M6 = wt PikAIV M6 (Streptomyces venezuelae, UniProt Q9ZGI2); experiment: SDS-PAGE autoradiography of self-loading; format: biochemical; details: 0.4 mM; HEPES pH 7.4, RT, 5 min; covalent; labelled compound
wt PikAIV M6, sequence (Q9ZGI2 whole entry): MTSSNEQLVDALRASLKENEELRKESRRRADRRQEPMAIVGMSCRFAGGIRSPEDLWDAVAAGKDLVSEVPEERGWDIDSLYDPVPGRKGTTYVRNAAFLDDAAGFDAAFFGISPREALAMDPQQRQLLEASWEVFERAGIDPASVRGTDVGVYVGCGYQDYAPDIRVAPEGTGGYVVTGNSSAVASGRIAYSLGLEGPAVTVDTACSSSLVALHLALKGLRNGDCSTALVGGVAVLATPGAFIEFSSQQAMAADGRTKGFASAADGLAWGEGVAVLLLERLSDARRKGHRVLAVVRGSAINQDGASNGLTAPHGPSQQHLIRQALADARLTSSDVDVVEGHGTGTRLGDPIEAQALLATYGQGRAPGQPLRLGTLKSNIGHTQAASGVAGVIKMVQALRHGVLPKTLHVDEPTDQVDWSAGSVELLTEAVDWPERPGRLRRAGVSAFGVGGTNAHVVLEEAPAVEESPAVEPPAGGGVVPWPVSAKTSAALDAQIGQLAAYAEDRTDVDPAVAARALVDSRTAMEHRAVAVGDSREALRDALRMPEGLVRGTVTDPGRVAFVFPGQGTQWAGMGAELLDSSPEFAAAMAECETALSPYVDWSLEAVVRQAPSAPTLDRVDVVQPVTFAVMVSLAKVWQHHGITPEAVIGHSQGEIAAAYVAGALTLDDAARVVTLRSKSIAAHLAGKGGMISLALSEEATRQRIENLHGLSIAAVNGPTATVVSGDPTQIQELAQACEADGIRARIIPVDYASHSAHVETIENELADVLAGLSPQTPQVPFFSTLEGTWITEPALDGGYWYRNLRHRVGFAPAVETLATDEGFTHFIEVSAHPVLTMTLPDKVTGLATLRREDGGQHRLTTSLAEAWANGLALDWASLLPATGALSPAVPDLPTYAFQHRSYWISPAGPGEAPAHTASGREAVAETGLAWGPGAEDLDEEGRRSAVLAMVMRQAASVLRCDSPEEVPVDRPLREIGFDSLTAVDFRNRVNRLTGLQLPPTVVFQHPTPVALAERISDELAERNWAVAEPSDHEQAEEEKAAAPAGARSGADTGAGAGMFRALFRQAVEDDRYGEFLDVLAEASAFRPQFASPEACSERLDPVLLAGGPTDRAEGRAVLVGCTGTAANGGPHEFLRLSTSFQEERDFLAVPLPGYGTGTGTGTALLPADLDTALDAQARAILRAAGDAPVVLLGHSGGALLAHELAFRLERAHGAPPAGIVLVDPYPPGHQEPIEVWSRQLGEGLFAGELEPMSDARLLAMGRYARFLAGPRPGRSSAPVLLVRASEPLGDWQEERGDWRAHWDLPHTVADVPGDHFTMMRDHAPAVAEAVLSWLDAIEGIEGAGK

CC(C(=O)O)C(=O)SCCNC(=O)CCNC(=O)[C@H](O)C(C)(C)COP(=O)(O)OP(=O)(O)OC[C@H]1O[C@@H](n2cnc3c(N)ncnc32)[C@H](O)[C@@H]1OP(=O)(O)O (some centres unmarked) [methylmalonyl-CoA]
SDS-PAGE autoradiography of self-loading (wt EryAIII M6): wt EryAIII M6 was able to self-load methylmalonyl-CoA
SDS-PAGE autoradiography of self-loading (wt PikAIV M6): The wt PikAIV M6 was able to self-load and transfer methylmalonyl-CoA, but not malonyl-CoA
